Results on one compound are retold here after patent publication US8039501B2, “Synephrine derivatives useful as anti-inflammatory agents” (Universiteit Gent, priority 2005, dated 2011).

Each structure is given as a SMILES string.

One data set deals with Saos-2. Put plainly: Q-PCR gene expression in osteosarcoma cell-line Saos-2. The format is cell-based, human. The following applies: 10 μM. The procedure: CpdA was synthesized as described previously. […] They were sacrificed and livers were isolated. […] Gene expression of HPRT was used for normalization. […] Gene expression of HPRT was used for normalization. […] Gene expression of HPRT was used for normalization. Statistical significance was determined by one way anova. […] Gene expression of HPRT was used for normalization. […] Gene expression of HPRT was used for normalization. Statistical significance was determined by one way anova. […] Statistical significance was determined with a Kruskal-Wallis test.

A further data set concerns MCF7 breast cancer cells. The data set can be described thus: Human Cancer Pathway Finder GEarray hybridization, MCF7 cells. It is filed as cell-based. Particulars: 10^−5 M. The procedure: mRNA of MCF7 breast cancer cells left untreated or treated with CpdA was analyzed for variation in gene expression by means of RNase protection analysis and nylon arrayfilter hybridization (SuperArray filters i.e. cancer pathway finder and stress and toxicity pathway array). From these experiments it can be derived that the synephrine analogues show a unique gene expression profile with respect to target genes involved in apoptosis, cell cycle, metastasis, angiogenesis, stress responses, and the like. At the same time, the synephrine analogue-induced gene expression prophile is distinct from the gene expression response observed with classical glucorticoids.
For the total RNA extraction, 10^5 cell were homogenized in 1 ml of TRIzol Reagent (GIBCO BRL), incubated 5 minutes at room temperature; then added 200 μl chloroform, vortexed 15 seconds. Mix was incubated on ice for 5 minutes. Phase separation was done by centrifugation at 12000 rpm for 15 minutes at 4° C. […]
Membranes were washed twice with 5 ml of pre-warmed wash solution 2×SSC, 1% SDS for 10 minutes at 68° C. with agitation at 30-40 rpm/minute. […] Visualization and quantitation of radioactive bands was carried out by a Phosphorlmager and scanned using a bioimaging analyzer (Personal Molecular Imager® FX Bio-Rad). Densitometry analysis of autoradiograms was performed using Quantity One (Bio-Rad). […]

Data set [1] in a line: MTT test, cell viability of A549 cells. It is filed as cell-based, human. The following applies: human, A549 lung epithelial (carcinoma) cells, read-out: Block of A549 cell viability. The method, then:
The MTT test is a standard assay addressing cell toxicity of a compound. It is based on the principle that after 3-4 hours of cell incubation with MTT (3-(4,5-dimethylthiazole-2-yl)-2,5-diphenyl tetrazolium bromide) so-called purple formazan crystals develop in living and early apoptotic cells. Dead cells don't produce formazan crystals.
Different cell lines were tested. Unless indicated differently, A549 human lung epithelial cells (derived from lung carcinoma) and L929sA murine fibroblast cells were cultured in DMEM with 10% FCS, 100 U/ml penicillin and 100 μg/ml streptomycin. Unless indicated differently, the human multiple myeloma cell lines L363, U266 and MM1.S were cultured in RPMI 1640 with Glutamax-I, supplemented with 10% FCS, 100 U/ml penicillin and 100 μg/ml streptomycin. Cells were seeded at 5000 cells/well (for adherent A549 and L929sA cells) or at 10000 cells/well (for the multiple myeloma lines in suspension) in 96 well plates. Cells were incubated in the presence of the respective synephrine compounds or vehicle (EtOH; for control test) in a final volume of 0.2 ml for 24 or 48 hours at 37° C. Subsequently, 20 μl of MTT solution (5 mg/ml in phosphate-buffered saline) was added to each well. After 4 hours incubation at 37° C., 80 μl of the extraction buffer (10% SDS, 0.01 M HCl) was added. After overnight incubation at room temperature, the optical densities at 590 nm were measured. Results are illustrated in FIGS. 2 to 6 and are expressed as percentage of viable cells as compared to vehicle-treated controls.
In a further MTT test, the activity of the synephrine derivatives on the inhibition of cell viability of non-immune cells was measured. […] Tests were performed for 24 hours and for 48 hours. The results are illustrated by FIGS. 5A and 5B for L929 cells, and by FIGS. 6A and 6B for A549 cells. It was observed that CpdA at 10^−5 M blocked cell viability of L929sA and A549 for not more than 10%.

Consider `CNCC(Cl)c1ccc(OC(C)=O)cc1.Cl` (centres unmarked) [CpdA, 2-(4-acetoxyphenyl)-2-chloro-N-methyl-ethylammonium chloride], for which, in the data set with Saos-2 (24 hours), the RANKL/OPG ratio entry is recorded as “does not alter the RANKL/OPG ratio”. Moreover, in the data set on Saos-2 (24 hours, FIG. 15, RANKL solvent versus CpdA p>0.05), the “Expression of osteoclast differentiation markers M-CSF and RANKL” value is given as “does not stimulate the expression”. The “Expression of OPG” value in the data set with Saos-2 (24 hours, FIG. 15, solvent versus CpdA p>0.05) was “does not down-regulate the expression of OPG”. Further, the “Expression of pro-inflammatory mediators (anti-inflammatory effect)” value in the data set with Saos-2 (TNF 2000 U/ml 6 hours, FIG. 16) is given as “anti-inflammatory effect”. In addition, the “Expression of cancer target genes TP53, TNFRSF12, MAP2K1, RAF, ITGA6, NCAM, PDGF, MMP9, MTA1, TIMP1” value in the data set on MCF7 breast cancer cells was “represses”. In addition, the cytotoxicity at 24 h in data set [1] (10^−4 M, 24 hours, FIG. 6A) turned out to be 20%. For the same compound, in data set [1] (10^−4 M, 48 hours, FIG. 6B), the cytotoxicity at 48 h is 40%. Moreover, in data set [1] (10^−5 M, 24 hours and 48 hours, FIGS. 6A and 6B), the cytotoxicity was no more than 10%.
